Experimental data published in patent publication US8969516B2, “Method of hydrolysis of peptide bond” (priority 2006, dated 2015).

Assay: MALDI-TOF screening of Ni^2+ dependent hydrolysis in a combinatorial peptide library
Format: physicochemical
Details: Ni^2+ 2 mM, pH 8.2, 10 mM Tris, score=24/tm
Outline: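 MALDI-TOF spectra taken at 2, 4, 6 and 8 h tracked the appearance of Ser/Thr-X-His-Z-Lys-Phe-Leu-NH2 cleavage products and the fall in substrate signals. Reactions: 1 mM peptide mixture, 2 mM Ni^2+, 10 mM Tris pH 8.2, at 37 or 45 °C; X/Z substitutions ranked by summed scores.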

[1] = CH3CO-Gly-Ala-Ser-X-His-Z-Lys-Phe-Leu-NH2 library, 37° C.
[2] = CH3CO-Gly-Ala-Ser-X-His-Z-Lys-Phe-Leu-NH2 library, 45° C.
[3] = CH3CO-Gly-Ala-Thr-X-His-Z-Lys-Phe-Leu-NH2 library, 37° C.
[4] = CH3CO-Gly-Ala-Thr-X-His-Z-Lys-Phe-Leu-NH2 library, 45° C.

| Substance | hydrolysis score from MALDI-TOF screening [1] | hydrolysis score from MALDI-TOF screening [2] | hydrolysis score from MALDI-TOF screening [3] | hydrolysis score from MALDI-TOF screening [4] |
| --- | --- | --- | --- | --- |
| Ac-GASRHTKFL-NH2 [SRHT] | 0 (a score of 0 if no trace of the product of hydrolysis was seen after 8 hours of incubation) | 3 (a score of 3 for detection at 8 hours) |  |  |
| Ac-GASSHGKFL-NH2 [SSHG] | 0 (a score of 0 if no trace of the product of hydrolysis was seen after 8 hours of incubation) | 3 (a score of 3 for detection at 8 hours) |  |  |
| Ac-GATLHQKFL-NH2 [TLHQ] |  |  | 0 (a score of 0 if no trace of the product of hydrolysis was seen after 8 hours of incubation) | 0 (a score of 0 if no trace of the product of hydrolysis was seen after 8 hours of incubation) |
| Ac-GATNHGKFL-NH2 [TNHG] |  |  | 0 (a score of 0 if no trace of the product of hydrolysis was seen after 8 hours of incubation) | 0 (a score of 0 if no trace of the product of hydrolysis was seen after 8 hours of incubation) |
| Ac-GASAHVKFL-NH2 [SAHV] | 0 (a score of 0 if no trace of the product of hydrolysis was seen after 8 hours of incubation) | 3 (a score of 3 for detection at 8 hours) |  |  |
| Ac-GASMHYKFL-NH2 [SMHY] | 3 (a score of 3 for detection at 8 hours) | 4 (a score of 4 for detection at 6 hours) |  |  |
| Ac-GASVHSKFL-NH2 [SVHS] | 0 (a score of 0 if no trace of the product of hydrolysis was seen after 8 hours of incubation) | 0 (a score of 0 if no trace of the product of hydrolysis was seen after 8 hours of incubation) |  |  |
| Ac-GASTHHKFL-NH2 [STHH] | 0 (a score of 0 if no trace of the product of hydrolysis was seen after 8 hours of incubation) | 3 (a score of 3 for detection at 8 hours) |  |  |
| Ac-GASKHPKFL-NH2 [SKHP] | 0 (a score of 0 if no trace of the product of hydrolysis was seen after 8 hours of incubation) | 0 (a score of 0 if no trace of the product of hydrolysis was seen after 8 hours of incubation) |  |  |
| Ac-GASPHTKFL-NH2 [SPHT] | 0 (a score of 0 if no trace of the product of hydrolysis was seen after 8 hours of incubation) | 0 (a score of 0 if no trace of the product of hydrolysis was seen after 8 hours of incubation) |  |  |
| Ac-GATKHHKFL-NH2 [TKHH] |  |  | 0 (a score of 0 if no trace of the product of hydrolysis was seen after 8 hours of incubation) | 4 (a score of 4 for detection at 6 hours) |
| Ac-GATFHSKFL-NH2 [TFHS] |  |  | 0 (a score of 0 if no trace of the product of hydrolysis was seen after 8 hours of incubation) | 0 (a score of 0 if no trace of the product of hydrolysis was seen after 8 hours of incubation) |
| Ac-GATGHTKFL-NH2 [TGHT] |  |  | 0 (a score of 0 if no trace of the product of hydrolysis was seen after 8 hours of incubation) | 0 (a score of 0 if no trace of the product of hydrolysis was seen after 8 hours of incubation) |
| Ac-GASFHRKFL-NH2 [SFHR] | 4 (a score of 4 for detection at 6 hours) | 6 (a score of 6 for detection at 4 hours) |  |  |
| Ac-GASTHMKFL-NH2 [STHM] | 0 (a score of 0 if no trace of the product of hydrolysis was seen after 8 hours of incubation) | 0 (a score of 0 if no trace of the product of hydrolysis was seen after 8 hours of incubation) |  |  |
| Ac-GATIHYKFL-NH2 [TIHY] |  |  | 0 (a score of 0 if no trace of the product of hydrolysis was seen after 8 hours of incubation) | 0 (a score of 0 if no trace of the product of hydrolysis was seen after 8 hours of incubation) |
| Ac-GATMHKKFL-NH2 [TMHK] |  |  | 0 (a score of 0 if no trace of the product of hydrolysis was seen after 8 hours of incubation) | 3 (a score of 3 for detection at 8 hours) |
| Ac-GASMHIKFL-NH2 [SMHI] | 4 (a score of 4 for detection at 6 hours) | 12 (a score of 12, if it was seen to be partially hydrolysed at 2 hours) |  |  |
| Ac-GATHHYKFL-NH2 [THHY] |  |  | 0 (a score of 0 if no trace of the product of hydrolysis was seen after 8 hours of incubation) | 6 (a score of 6 for detection at 4 hours) |
| Ac-GATPHEKFL-NH2 [TPHE] |  |  |  | 0 (a score of 0 if no trace of the product of hydrolysis was seen after 8 hours of incubation) |

| Substance | hydrolysis score from MALDI-TOF screening [1] | hydrolysis score from MALDI-TOF screening [2] | hydrolysis score from MALDI-TOF screening [3] | hydrolysis score from MALDI-TOF screening [4] |
| --- | --- | --- | --- | --- |
| Ac-GASSHWKFL-NH2 [SSHW] | 6 (a score of 6 for detection at 4 hours) | 12 (a score of 12, if it was seen to be partially hydrolysed at 2 hours) |  |  |
| Ac-GASSHDKFL-NH2 [SSHD] | 0 (a score of 0 if no trace of the product of hydrolysis was seen after 8 hours of incubation) | 3 (a score of 3 for detection at 8 hours) |  |  |
| Ac-GATKHDKFL-NH2 [TKHD] |  |  | 0 (a score of 0 if no trace of the product of hydrolysis was seen after 8 hours of incubation) | 0 (a score of 0 if no trace of the product of hydrolysis was seen after 8 hours of incubation) |
| Ac-GATRHVKFL-NH2 [TRHV] |  |  | 3 (a score of 3 for detection at 8 hours) | 4 (a score of 4 for detection at 6 hours) |
| Ac-GASAHQKFL-NH2 [SAHQ] | 0 (a score of 0 if no trace of the product of hydrolysis was seen after 8 hours of incubation) | 0 (a score of 0 if no trace of the product of hydrolysis was seen after 8 hours of incubation) |  |  |
| Ac-GATYHRKFL-NH2 [TYHR] |  |  | 4 (a score of 4 for detection at 6 hours) | 4 (a score of 4 for detection at 6 hours) |
| Ac-GATQHVKFL-NH2 [TQHV] |  |  | 0 (a score of 0 if no trace of the product of hydrolysis was seen after 8 hours of incubation) | 0 (a score of 0 if no trace of the product of hydrolysis was seen after 8 hours of incubation) |
| Ac-GASSHNKFL-NH2 [SSHN] | 0 (a score of 0 if no trace of the product of hydrolysis was seen after 8 hours of incubation) | 0 (a score of 0 if no trace of the product of hydrolysis was seen after 8 hours of incubation) |  |  |
| Ac-GATVHYKFL-NH2 [TVHY] |  |  | 0 (a score of 0 if no trace of the product of hydrolysis was seen after 8 hours of incubation) | 0 (a score of 0 if no trace of the product of hydrolysis was seen after 8 hours of incubation) |
| Ac-GATAHPKFL-NH2 [TAHP] |  |  | 0 (a score of 0 if no trace of the product of hydrolysis was seen after 8 hours of incubation) | 0 (a score of 0 if no trace of the product of hydrolysis was seen after 8 hours of incubation) |
| Ac-GATLHSKFL-NH2 [TLHS] |  |  | 0 (a score of 0 if no trace of the product of hydrolysis was seen after 8 hours of incubation) | 0 (a score of 0 if no trace of the product of hydrolysis was seen after 8 hours of incubation) |
| Ac-GASYHIKFL-NH2 [SYHI] | 4 (a score of 4 for detection at 6 hours) | 6 (a score of 6 for detection at 4 hours) |  |  |
| Ac-GATMHEKFL-NH2 [TMHE] |  |  | 0 (a score of 0 if no trace of the product of hydrolysis was seen after 8 hours of incubation) | 0 (a score of 0 if no trace of the product of hydrolysis was seen after 8 hours of incubation) |
| Ac-GASYHFKFL-NH2 [SYHF] | 3 (a score of 3 for detection at 8 hours) | 4 (a score of 4 for detection at 6 hours) |  |  |
| Ac-GASPHMKFL-NH2 [SPHM] | 0 (a score of 0 if no trace of the product of hydrolysis was seen after 8 hours of incubation) | 0 (a score of 0 if no trace of the product of hydrolysis was seen after 8 hours of incubation) |  |  |
| Ac-GASTHIKFL-NH2 [STHI] | 4 (a score of 4 for detection at 6 hours) | 6 (a score of 6 for detection at 4 hours) |  |  |
| Ac-GASNHTKFL-NH2 [SNHT] | 0 (a score of 0 if no trace of the product of hydrolysis was seen after 8 hours of incubation) | 0 (a score of 0 if no trace of the product of hydrolysis was seen after 8 hours of incubation) |  |  |
| Ac-GASMHGKFL-NH2 [SMHG] | 0 (a score of 0 if no trace of the product of hydrolysis was seen after 8 hours of incubation) | 0 (a score of 0 if no trace of the product of hydrolysis was seen after 8 hours of incubation) |  |  |
| Ac-GASIHTKFL-NH2 [SIHT] | 0 (a score of 0 if no trace of the product of hydrolysis was seen after 8 hours of incubation) | 0 (a score of 0 if no trace of the product of hydrolysis was seen after 8 hours of incubation) |  |  |
